In patent US20220259249A1, “INHIBITORS OF ANTIBIOTIC RESISTANCE MEDIATED BY ARNT” (priority 2019, published 2022):
Where two headings read alike, the source gives them in different places.

What was measured:
[1] = tested on: P. aeruginosa PA14 col^R 5 (colistin-resistant strain); assay: microbe, parasite or virus in culture; format: cell-based; details: for antibacterial activity per se: in the absence of colistin; for IC90: read-out: IC90, synergy with colistin (8 μg/ml), minimum concentration causing at least 90% growth inhibition; for inhibition of bacterial growth in the presence of colistin: colistin 8 μg/ml
Protocol: The compounds identified by in silico screening were tested for their antibacterial activity (in the absence of colistin) and for their synergistic or adjuvant activity with colistin against a colistin-resistant strain of P. aeruginosa grown in the absence or presence of a sub-inhibitory concentration of colistin (8 μg/ml).
This strain over-expresses the am genes responsible for the modification of lipopolysaccharide by the addition of L-amino-arabinose.
The strain was grown in Mueller-Hinton (MH) medium for 8 hours, and inoculated at a cell density of ˜10^6/ml in MH medium supplemented or not with colistin at a concentration of 16 μg/ml. […] The microtitration plates were incubated at 37° C. without stirring for 24 hours. Bacterial growth was assessed by measuring absorbance at 600 nm (A600) in a microplate reader (Victor 2^V, Perkin-Elmer). […] For each compound three independent experiments were conducted, and the averages of the values obtained in the three experiments are considered to determine the values of IC50 e IC90.

[2] = tested on: 16HBE cells (human epithelial cells of bronchial origin); assay: Cell viability test (MTT reduction);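 note: formazan absorbance at 570 nm after MTT reduction, corrected for cell-free blank wells, reported relative to untreated cells, from duplicate wells over three independent repeats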
Protocol: The cytotoxic potential of the compounds was evaluated on cell cultures in vitro. […] The results are reported in the table as viability (%) compared to untreated cells (Table 4).
To evaluate the cytotoxic potential of the compounds under examination, the MTT (3-(4,5-dimethylthiazol-2-yl)-2,5-diphenyltetrazolium) reduction test, commonly used to monitor cell viability was used following the exposure to potentially cytotoxic agents. The essay is based on the reduction of MTT to formazan, a compound that assumes a blue colour which can be evaluated by spectrophotometric reading at a wavelength of 570 nm. For the essay we used the 16HBE cell line. […] Each test was performed in duplicate and three independent replicas were made.
Cell viability was calculated as follows:
COD570=OD570 of sample−OD570 of wells without cells (white)
Viability=100−reduction (%)
where: NT indicates the samples of cells non-threated with the compounds; T the samples of cells treated with the compounds at the different concentrations.
The mean cell viability values were calculated using the Excel mean and standard deviation functions.

[3] = tested on: P. aeruginosa PA14 col^R 5 (colistin-resistant strain); assay: Checkerboard assay compound/colistin; format: cell-based; details: for reduction of MIC of colistin (times): PA14 col^R 5
Protocol: The checkerboard essays were performed in microtiter plates with 96 wells, aliquoting in each column of wells 50 μl of MH medium containing decreasing concentrations of colistin (dilutions in reason of 2 from 384 to 1.5 μg/ml) or without colistin, and in each row of wells further 50 μl of MH medium containing decreasing concentrations of compound of interest (dilutions in reason 2 from […]) or without compound. Finally, 50 μl of the inoculum of the PA14 col^R 5 strain were added to each well at a concentration of ˜1.5×10^6 cells/ml in MH medium, so as to reach a final volume of 150 μl, a bacteria concentration equal to […], colistin concentrations in the range 0-128 μg/ml and concentrations of compounds of interest in the range 0-125 μM. Plates were incubated at 37° C. without shaking for 24 hours, and bacterial growth was assessed by measuring the A600 in a microplate reader (Victor 2^V, Perkin-Elmer). Three independent experiments were conducted for each compound, and the averages of the values obtained in the three experiments were considered to determine the IC90 values.

[4] = tested on: P. aeruginosa strains resistant and sensitive to colistin; assay: MIC of colistin in presence of BBN149 or DMSO, P. aeruginosa strains; format: cell-based; details: colistin without BBN149
Protocol: (§1) All the colistin-resistant strains used depend on the aminoarabinosylation of lipid A as a mechanism of resistance to colistin (Lo Sciuto e Imperi, 2018; Esposito et al., 2018). […] MIC essays were performed in 96-well microtitration plates, using previously characterized P. aeruginosa and K. pneumoniae strains (Lo Sciuto e Imperi, 2018; Esposito et al., 2018). […] At least three independent experiments were conducted for each strain.

[5] = tested on: colistin-resistant clinical strains of Klebsiella pneumoniae; assay: MIC of colistin in presence of BBN149 or DMSO, K. pneumoniae clinical strains; format: cell-based; details: colistin without BBN149
Protocol: as §1

[6] = Pseudomonas aeruginosa, PA14, 24 h, read-out: IC50 without colistin
[7] = read-out: IC50, synergy with colistin (8 μg/ml), PA14 ColR5, colistin 8 μg/ml (sub-inhibitory), minimum concentration causing at least 50% growth inhibition, 24 h
[8] = PA14 ColR5, colistin 8 μg/ml (sub-inhibitory), 24 h
[9] = 16HBE, 1.95 μM, 18 hours, MTT, vs untreated cells
[10] = 16HBE, 3.91 μM, 18 hours, MTT, vs untreated cells
[11] = 16HBE, 7.81 μM, 18 hours, MTT, vs untreated cells
[12] = 16HBE, 15.63 μM, 18 hours, MTT, vs untreated cells
[13] = 16HBE, 31.25 μM, 18 hours, MTT, vs untreated cells
[14] = 16HBE, 125 μM, 18 hours, MTT, vs untreated cells
[15] = 16HBE, 250 μM, 18 hours, MTT, vs untreated cells
[16] = 16HBE, 62.5 μM, 18 hours, MTT, vs untreated cells

C[C@]12C=C[C@@]3(CCC4[C@@](C)(CO)CCC[C@@]4(C)C3CC1)C2 (stereo partly drawn) [FDA, ent-beyer-15-en-18-ol]
IC50 [1, 6]: > 250 µM
antibacterial activity per se [1]: none of the compounds showed antibacterial activity per se
IC50 [1, 7]: > 250 µM
IC90 [1, 8]: > 250 µM

C[C@]12C=C[C@@]3(CCC4[C@@](C)(COC(=O)CC(=O)O)CCC[C@@]4(C)C3CC1)C2 (stereo partly drawn) [FDM, ent-beyer-15-en-18-O-malonic acid]
IC50 [1, 6]: > 250 µM
inhibition of bacterial growth in the presence of colistin [1]: able to inhibit bacterial growth in the presence of colistin
antibacterial activity per se [1]: none of the compounds showed antibacterial activity per se
IC50 [1, 7]: 62.5 µM
IC90 [1, 8]: > 250 µM
Average percentage of cell viability (±standard deviation) [2]: 106.63 ± 2.87%
Average percentage of cell viability (±standard deviation) [2, 9]: 102.92 ± 7.31%
Average percentage of cell viability (±standard deviation) [2, 10]: 96.70 ± 1.60%
Average percentage of cell viability (±standard deviation) [2, 11]: 97.93 ± 2.17%
Average percentage of cell viability (±standard deviation) [2, 12]: 107.42 ± 0.01%
Average percentage of cell viability (±standard deviation) [2, 13]: 113.17 ± 8.95%
Average percentage of cell viability (±standard deviation) [2, 14]: 100.48 ± 12.78%
Average percentage of cell viability (±standard deviation) [2, 15]: 85.01 ± 2.40%

C[C@@]12CCC3[C@@](CCC4[C@@](C)(COC(=O)C(=O)O)CCC[C@]43C)(CC1)C2 (stereo partly drawn) [FDO-H, ent-beyeran-18-O-oxalic acid]
IC50 [1, 6]: < 250 µM
IC50 [1, 7]: 7.81 µM
concentration of compound reducing MIC of colistin by 4 times [3]: ≥ 4 µM
reduction of MIC of colistin (times) ([3]; compound ≥4 μM): 4 times
reduction of MIC of colistin (times) ([3]; compound ≥31 μM, MIC 64 to 8 μg/ml): 8 times
Average percentage of cell viability (±standard deviation) [2, 9]: 106.31 ± 17.23%
Average percentage of cell viability (±standard deviation) [2, 10]: 94.57 ± 12.67%
Average percentage of cell viability (±standard deviation) [2, 11]: 100.25 ± 23.84%
Average percentage of cell viability (±standard deviation) [2, 12]: 94.06 ± 3.88%
Average percentage of cell viability (±standard deviation) [2, 13]: 93.65 ± 11.27%
Average percentage of cell viability (±standard deviation) [2, 16]: 97.14 ± 12.19%
Average percentage of cell viability (±standard deviation) [2, 14]: 98.42 ± 16.71%
Average percentage of cell viability (±standard deviation) [2, 15]: 76.51 ± 12.64%

C[C@]12C=C[C@@]3(CCC4[C@@](C)(COC(=O)CCC(=O)O)CCC[C@@]4(C)C3CC1)C2 (stereo partly drawn) [FDS, ent-beyer-15-en-18-O-succinic acid]
IC50 [1, 6]: > 250 µM
inhibition of bacterial growth in the presence of colistin [1]: able to inhibit bacterial growth in the presence of colistin
antibacterial activity per se [1]: none of the compounds showed antibacterial activity per se
IC50 [1, 7]: 31.2 µM
IC90 [1, 8]: > 250 µM
Average percentage of cell viability (±standard deviation) [2]: 102.95 ± 6.74%
Average percentage of cell viability (±standard deviation) [2, 9]: 98.93 ± 5.38%
Average percentage of cell viability (±standard deviation) [2, 10]: 95.34 ± 8.28%
Average percentage of cell viability (±standard deviation) [2, 11]: 93.53 ± 2.01%
Average percentage of cell viability (±standard deviation) [2, 12]: 99.77 ± 6.58%
Average percentage of cell viability (±standard deviation) [2, 16]: 102.15 ± 3.15%
Average percentage of cell viability (±standard deviation) [2, 14]: 105.88 ± 1.31%
Average percentage of cell viability (±standard deviation) [2, 15]: 86.12 ± 3.18%

C=C1C[C@@]23CCC4[C@@](C)(CCC[C@@]4(C)C(=O)O)C2CC[C@]1(O)C3 (some centres unmarked) [SR5, 13-hydroxy-kaur-16-en-19-oic acid]
IC50 [1, 6]: > 250 µM
IC50 [1, 7]: > 250 µM
IC90 [1, 8]: > 250 µM

C[C@@]12CCC3[C@@](CCC4[C@](C)(COC(=O)C(=O)O)CCC[C@]43C)(CC1)C2 (stereo partly drawn) [SR8, ent-beyeran-19-O-oxalic acid]
IC50 [1, 6]: > 250 µM
IC90 [1, 8]: > 250 µM
Average percentage of cell viability (±standard deviation) [2]: 90.55 ± 4.17%
Average percentage of cell viability (±standard deviation) [2, 9]: 100.17 ± 14.21%
Average percentage of cell viability (±standard deviation) [2, 10]: 97.84 ± 10.19%
Average percentage of cell viability (±standard deviation) [2, 11]: 90.33 ± 4.26%
Average percentage of cell viability (±standard deviation) [2, 12]: 92.64 ± 6.57%
Average percentage of cell viability (±standard deviation) [2, 16]: 85.68 ± 6.99%
Average percentage of cell viability (±standard deviation) [2, 14]: 78.02 ± 7.46%
Average percentage of cell viability (±standard deviation) [2, 15]: 80.16 ± 2.01%

C[C@@]12CCC3[C@@](CCC4[C@](C)(CO)CCC[C@]43C)(CC1)C2 (stereo partly drawn) [SR9, ent-beyeran-19-ol]
IC50 [1, 6]: > 250 µM
IC50 [1, 7]: > 250 µM
IC90 [1, 8]: > 250 µM

C[C@@]12CCC3[C@@](CCC4[C@@]3(C)CCC[C@@]4(C)C(=O)O)(CC1)C2 (stereo partly drawn) [SR10, ent-beyeran-19-oic acid]
IC50 [1, 6]: > 250 µM
IC90 [1, 8]: > 250 µM
Average percentage of cell viability (±standard deviation) [2]: 99.52 ± 9.52%
Average percentage of cell viability (±standard deviation) [2, 9]: 105.21 ± 6.73%
Average percentage of cell viability (±standard deviation) [2, 10]: 104.95 ± 6.36%
Average percentage of cell viability (±standard deviation) [2, 11]: 101.00 ± 7.12%
Average percentage of cell viability (±standard deviation) [2, 12]: 97.98 ± 1.66%
Average percentage of cell viability (±standard deviation) [2, 16]: 99.80 ± 4.30%
Average percentage of cell viability (±standard deviation) [2, 14]: 92.07 ± 5.47%
Average percentage of cell viability (±standard deviation) [2, 15]: 1.47 ± 2.29%
reduction in cell viability ([2]; 16HBE, highest concentration (250 μM), 18 hours): total reduction of cell viability

colistin [reference compound]
MIC of colistin with 0.6% DMSO as a control ([4]; strain KK1): 0.5 µg/mL
MIC of colistin with 0.6% DMSO as a control ([4]; strain KK1 col^R 1): 128 µg/mL
MIC of colistin with 0.6% DMSO as a control ([4]; strain KK27): 0.5 µg/mL
MIC of colistin with 0.6% DMSO as a control ([4]; strain KK27 col^R 6): 64 µg/mL
MIC of colistin with 0.6% DMSO as a control ([4]; strain PA14): 0.5 µg/mL
MIC of colistin with 0.6% DMSO as a control ([4]; strain PA14 col^R 5): 64 µg/mL
MIC of colistin with 0.6% DMSO as a control ([4]; strain TR1): 0.5 µg/mL
MIC of colistin with 0.6% DMSO as a control ([4]; strain TR1 col^R 6): 16 µg/mL
MIC of colistin with 0.6% DMSO as a control ([5]; strain KP-Mo-3): 128 µg/mL
MIC of colistin with 0.6% DMSO as a control ([5]; strain KP-Mo-5): 128 µg/mL
MIC of colistin with 0.6% DMSO as a control ([5]; strain KP-Mo-6): 32 µg/mL
MIC of colistin with 0.6% DMSO as a control ([5]; strain KP-Mo-11): 64 µg/mL
MIC of colistin with 0.6% DMSO as a control ([5]; strain KP-Mo-16): 64 µg/mL
